Data as given in publication PMC9331716, “Nucleoside Transport and Nucleobase Uptake Null Mutants in Leishmania mexicana for the Routine Expression and Characterization of Purine and Pyrimidine Transporters” (International Journal of Molecular Sciences, 2022).
Several values for one entry are separate records, joined by “and”; a condition that tells them apart may be missing. Equal entries are not always repeated. Where two headings read alike, the source gives them in different places.

Key:
[1] = tested on: L. mexicana cas9 cells; experiment: Radiolabel transport assay in cas9 cells; type: cell-based, Leishmania mexicana; conditions: cas9 cells
Experimental: (§1) Transport assays were performed exactly as described previously. Briefly, 10^7 cells in 100 μL of assay buffer (AB) were mixed with an equal volume of radiolabel at 2× concentration for a preset time. The incubation was terminated by the addition of 700 μL of “Stop solution”, being ice-cold 1 mM solution of unlabelled permeant, followed by immediate centrifugation through an oil layer in a microfuge at 13,000 rpm. This causes the cell pellet to reside under the oil layer and isolated from residual radiolabel in the assay buffer. The tubes were flash-frozen in liquid nitrogen and the bottom tip, containing the cell pellet, cut off and collected in a scintillation tube. Cells were solubilized by gentle shaking after addition of a 2% SDS solution, before the addition of scintillation fluid (Scintilogic U, Lablogic, Sheffield, UK); the tubes were left to stand in the dark overnight before counting in a 300SL Hidex Scintillation Counter (Lablogic). Linear and nonlinear regression analyses were carried out using GraphPad Prism versions 8.0 and higher. […] However, all parameters, including Km, Vmax, Ki, given are the average of at least three separate, independent determinations; errors given are standard errors, unless otherwise specified.

[2] = tested on: L. mexicana NT3-KO promastigotes; experiment: Radiolabel transport assay in NT3-KO cells; type: cell-based, Leishmania mexicana; conditions: for rate of uptake: NT3-KO cells; for upregulation of uptake rate in NT3-KO relative to cas9: adenosine and inosine at 100 nM, separate experiments listed singly
Experimental: as §1

[3] = molecular target: T1, TcrNB2 (Trypanosoma cruzi, UniProt Q4DHG0); experiment: Transport assay, TcrNB2 expressed in LmexNT3-KO; type: cell-based
T1 sequence (Q4DHG0 1-440): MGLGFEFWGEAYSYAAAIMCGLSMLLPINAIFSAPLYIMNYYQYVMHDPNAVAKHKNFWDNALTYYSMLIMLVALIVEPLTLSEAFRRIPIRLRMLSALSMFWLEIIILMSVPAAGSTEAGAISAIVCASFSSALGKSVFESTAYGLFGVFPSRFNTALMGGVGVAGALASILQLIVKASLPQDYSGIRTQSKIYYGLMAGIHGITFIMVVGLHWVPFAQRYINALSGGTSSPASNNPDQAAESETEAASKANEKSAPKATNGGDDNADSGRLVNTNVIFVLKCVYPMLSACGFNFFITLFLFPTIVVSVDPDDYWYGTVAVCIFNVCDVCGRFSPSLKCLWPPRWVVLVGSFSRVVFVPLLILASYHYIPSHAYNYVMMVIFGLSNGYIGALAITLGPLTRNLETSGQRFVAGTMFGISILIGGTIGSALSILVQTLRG
Experimental: as §1

[4] = tested on: L. mexicana cas9 cells; experiment: Growth curve of cas9 cells with selection agents; type: cell-based, Leishmania mexicana; conditions: 5 μM tubercidin, 5 μg/mL blasticidin, 20 µg/mL puromycin, 1 µM formycin B
Experimental: The growth rates of the L. mexicana promastigotes were determined in the standard HOMEM medium supplemented with 10% FBS, in 12-well plates, in triplicate. After every 24 h, cells were counted in a sample of the culture, using either a Neubauer hemocytometer chamber (Hawksley, Birmingham, UK) or by a coulter particle counter and size analyzer (Beckman, Brea, CA, USA) to count the cells in triplicate. An average of the triplicate readings was taken and plotted using GraphPad Prism 8 software to obtain the growth curves.

[5] = tested on: L. mexicana SUPKO (ΔNT1.1/1.2/2) cells; experiment: Radiolabel transport assay in SUPKO cells; type: cell-based, Leishmania mexicana; conditions: for rate of uptake: SUPKO cells; for uptake reduced in SUPKO compared to cas9: 100 nM (0.1 µM) radiolabel
Experimental: as §1

[6] = molecular target: T2, TvagENT3 (Trichomonas vaginalis, UniProt A2E5Q3); experiment: cell-based
Experimental: as §1

[7] = tested on: L. mexicana NT2-KO cells; experiment: Radiolabel transport assay in NT2-KO cells; type: cell-based, Leishmania mexicana; conditions: for inhibition of residual [^3H]-guanosine uptake in NT2-KO: 250 µM inhibitor, 100 nM [^3H]-guanosine
Experimental: as §1

[8] = molecular target: T1, TcrNB2; experiment: Transport assay, TcrNB2 expressed in NT1-KO; type: cell-based; conditions: 50 nM [^3H]-adenosine, 100 nM [^3H]-hypoxanthine, 100 nM [^3H]-uracil; data not shown
Experimental: as §1

[9] = molecular target: T2, TvagENT3; conditions: TvagENT3 expressed in T. brucei; cited from earlier work
[10] = tested on: L. mexicana NT1-KO promastigotes; experiment: Resazurin (Alamar blue) drug sensitivity assay, NT1-KO line; type: cell-based, Leishmania mexicana
Experimental: The assay is based on the reduction of the dye resazurin (Alamar blue) by live but not dead cells and was performed with various strains of Leishmania mexicana promastigotes, exactly as described. Briefly, doubling dilutions starting at 100 µM were set up over 2 rows of a 96-well plate and 2 × 10^5 cells were added to each well, followed by incubation at 25 °C. After 72 h, 20 µL of 125 µg/mL resazurin solution was added and the plates incubated for a further 24 h. Fluorescence was determined in a FLUOstar OPTIMA plate reader (BMG Labtech, Ortenberg, Germany), reading the fluorescence intensity in arbitrary units (A.U.) at 544 nm wavelength for excitation and 620 nm wavelength for emission. The EC50 values and fluorescence data were determined and plotted to a sigmoid curve with variable slope, using the GraphPad Prism 8 software package. All EC50 values were determined on at least three independent occasions and are presented as average ± SEM.

[11] = tested on: LmexNT1.1; experiment: Transport assay, LmexNT1.1 expressed in SUPKO; type: cell-based, Leishmania mexicana; conditions: SUPKO expressing LmexNT1.1, 50 nM radiolabel
Experimental: as §1

[12] = tested on: LmexNT1.2; experiment: Transport assay, LmexNT1.2 expressed in SUPKO; type: cell-based, Leishmania mexicana
Experimental: as §1

[13] = molecular target: L. major U1 transporter; parameters: method as in PMID 15796010; conditions: unit printed only with the uridine value; cited from earlier work
[14] = substrate: Nc1ncnc2nc[nH]c12; experiment: Transport assay, TcrNB2 expressed in LmexNT3-KO; type: cell-based, Trypanosoma cruzi
Experimental: as §1

[15] = 100 nM radiolabel, listed as [^3H]-guanosine

T2 sequence (A2E5Q3 entry or part of it): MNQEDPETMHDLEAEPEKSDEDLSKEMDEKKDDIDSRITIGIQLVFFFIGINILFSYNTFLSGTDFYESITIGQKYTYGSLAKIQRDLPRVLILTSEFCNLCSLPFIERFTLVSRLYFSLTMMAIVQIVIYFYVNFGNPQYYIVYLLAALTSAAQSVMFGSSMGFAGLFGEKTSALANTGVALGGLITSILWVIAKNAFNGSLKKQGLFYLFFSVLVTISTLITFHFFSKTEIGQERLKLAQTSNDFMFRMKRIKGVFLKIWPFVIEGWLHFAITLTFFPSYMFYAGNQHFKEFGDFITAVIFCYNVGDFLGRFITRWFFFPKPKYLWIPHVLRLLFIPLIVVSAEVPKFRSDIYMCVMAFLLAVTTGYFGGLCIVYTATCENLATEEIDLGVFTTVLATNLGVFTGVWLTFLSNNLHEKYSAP

## Nc1ncnc2[nH]cnc12 [adenine]
[1]; 100 nM radiolabel
  rate of uptake: 0.0213 ± 0.0009 pmol(10^7 cells)^−1s^−1
[2]; 100 nM radiolabel
  rate of transport in NT3-KO as % of that in cas9: < 1%
  rate of uptake: 0.000207 ± 0.000094 pmol(10^7 cells)^−1s^−1
[2]; 100 nM radiolabel, over 15 s
  uptake in NT3-KO lower than in cas9: > 100 fold
[3]; NT3-KO expressing TcrNB2, 100 nM radiolabel
  rate of uptake: 0.00036 ± 0.00001 pmol(10^7 cells)^−1s^−1
[3]; TcrNB2 in NT3-KO, n = 3
  Vmax: 0.26 ± 0.04 pmol(10^7 cells)^−1s^−1

## CN(CC[C@H](N)CC(=O)N[C@H]1C=C[C@H](n2ccc(N)nc2=O)O[C@@H]1C(=O)O)C(=N)N [blasticidin]
[4]
  sensitivity of cas9 cells in growth curve: confirmed

## Nc1ccn([C@@H]2O[C@H](CO)[C@@H](O)[C@H]2O)c(=O)n1 [cytidine]
[5]; 500 nM radiolabel
  rate of uptake: 1.5 × 10^−5 ± 9 × 10^−6 pmol(10^7 cells)^−1s^−1
[2]; listed as [^3H]-cytidine
  upregulation of uptake rate in NT3-KO relative to cas9: 3.0 fold and 3.7 fold
[6]; SUPKO expressing TvagENT3, 500 nM radiolabel
  rate of uptake: 1.8 × 10^−4 ± 1.3 × 10^−5 pmol(10^7 cells)^−1s^−1

## Nc1nc2c(ncn2[C@@H]2O[C@H](CO)[C@@H](O)[C@H]2O)c(=O)[nH]1 [guanosine]
[1]; [15]
  rate of uptake: 0.010 ± 0.0006 pmol(10^7 cells)^−1s^−1 and 0.0058 ± 0.0003 pmol(10^7 cells)^−1s^−1
[7]; 100 nM radiolabel
  rate of uptake lower in NT2-KO than in cas9: 84.5%
[7]
  inhibition of residual [^3H]-guanosine uptake in NT2-KO: completely inhibited
[7]; NT2-KO cells, 100 nM radiolabel
  rate of uptake: 0.0009 ± 0.00014 pmol(10^7 cells)^−1s^−1
[5]
  uptake reduced in SUPKO compared to cas9: 95.5%
[5]; [15]
  rate of uptake: 0.00046 ± 0.00011 pmol(10^7 cells)^−1s^−1
[2]
  upregulation of uptake rate in NT3-KO relative to cas9: 1.7 fold and 2.1 fold

## O=c1[nH]cnc2nc[nH]c12 [hypoxanthine]
[7]
  inhibition of residual [^3H]-guanosine uptake in NT2-KO: completely inhibited
[5]; 100 nM radiolabel
  rate of uptake: 0.045 ± 0.004 pmol(10^7 cells)^−1s^−1
[2]; 100 nM radiolabel, p = 0.72
  uptake detected in NT3-KO cells: no significant hypoxanthine uptake was detected
[2]; 100 nM radiolabel
  rate of uptake: 0.00019 ± 0.00045 pmol(10^7 cells)^−1s^−1
[3]; 1 mM inhibitor, TcrNB2 in NT3-KO, read-out: inhibition of adenine uptake
  inhibition at 1000 µM: 31.1 ± 4.3%
[8]
  effect of TcrNB2 expression on uptake in NT1-KO cells: did not increase

## O=c1[nH]cnc2c1ncn2[C@@H]1O[C@H](CO)[C@@H](O)[C@H]1O [inosine]
[1]; 100 nM radiolabel
  rate of uptake: 0.016 ± 0.002 pmol(10^7 cells)^−1s^−1
[2]; 100 nM radiolabel
  rate of uptake: 0.061 ± 0.002 pmol(10^7 cells)^−1s^−1
[2]
  upregulation of uptake rate in NT3-KO relative to cas9: 4 fold
[6]; TvagENT3 in SUPKO, inhibition of 50 nM [^3H]-adenosine uptake
  Ki: 2.7 ± 0.5 µM
[9]
  Ki: 3.3 ± 0.07 µM

## N=C(N)c1ccc(OCCCCCOc2ccc(C(=N)N)cc2)cc1 [pentamidine]
[10]; NT1-KO compared with cas9
  EC50 (internal control): unchanged

## COc1ccc(C[C@H](N)C(=O)N[C@H]2[C@@H](O)[C@H](n3cnc4c(N(C)C)ncnc43)O[C@@H]2CO)cc1 [puromycin]
[4]
  sensitivity of cas9 cells in growth curve: confirmed

## Cc1cn([C@H]2C[C@H](O)[C@@H](CO)O2)c(=O)[nH]c1=O [thymidine]
[1]; 50 nM radiolabel
  rate of uptake: 0.0018 ± 0.0001 pmol(10^7 cells)^−1s^−1
[5]
  uptake reduced in SUPKO compared to cas9: 95.7 ± 1.8%
[5]; 50 nM radiolabel
  rate of uptake: 8.7 × 10^−5 ± 1.2 × 10^−5 pmol(10^7 cells)^−1s^−1
[2]
  upregulation of uptake rate in NT3-KO relative to cas9: 3.45 fold

## Nc1ncnc2c1ccn2[C@@H]1O[C@H](CO)[C@@H](O)[C@H]1O [tubercidin]
[10]; NT1-KO vs cas9, resazurin assay
  shift in tubercidin sensitivity: 60 fold
[4]
  sensitivity of cas9 cells in growth curve: confirmed

## O=c1ccn([C@@H]2O[C@H](CO)[C@@H](O)[C@H]2O)c(=O)[nH]1 [uridine]
[1]; 100 nM radiolabel
  rate of uptake: 0.10 ± 0.003 pmol(10^7 cells)^−1s^−1
[5]; listed as [^3H]-uridine
  uptake reduced in SUPKO compared to cas9: 88.3% and 98.6% and 97.5%
[5]; 50 nM radiolabel
  rate of uptake: not significantly different from zero
[5]; 100 nM radiolabel
  rate of uptake: 0.0014 ± 0.00009 pmol(10^7 cells)^−1s^−1
[11]
  rate of uptake: 0.0012 ± 0.0001 pmol(10^7 cells)^−1s^−1
[12]; SUPKO expressing LmexNT1.2, 50 nM radiolabel
  rate of uptake: 0.0076 ± 0.0009 pmol(10^7 cells)^−1s^−1
[12]; SUPKO transfectants, p = 0.0004
  uptake faster by cells expressing NT1.2 than NT1.1: 6.3 fold
[13]
  Ki: 10.9 ± 3.2 µM

B1: TcrNB2 (Trypanosoma cruzi strain CL Brener) (protein)
chain: MGLGFEFWGEAYSYAAAIMCGLSMLLPINAIFSAPLYIMNYYQYVMHDPNAVAKHKNFWDNALTYYSMLIMLVALIVEPLTLSEAFRRIPIRLRMLSALSMFWLEIIILMSVPAAGSTEAGAISAIVCASFSSALGKSVFESTAYGLFGVFPSRFNTALMGGVGVAGALASILQLIVKASLPQDYSGIRTQSKIYYGLMAGIHGITFIMVVGLHWVPFAQRYINALSGGTSSPASNNPDQAAESETEAASKANEKSAPKATNGGDDNADSGRLVNTNVIFVLKCVYPMLSACGFNFFITLFLFPTIVVSVDPDDYWYGTVAVCIFNVCDVCGRFSPSLKCLWPPRWVVLVGSFSRVVFVPLLILASYHYIPSHAYNYVMMVIFGLSNGYIGALAITLGPLTRNLETSGQRFVAGTMFGISILIGGTIGSALSILVQTLRG
[14]; other: TcrNB2 in NT3-KO, 100 nM [^3H]-adenine, n = 3
  Km: 14.2 ± 2.6 µM
[14]; other: one of three independent repeats, incubation time 120 s
  Km: 14.99 µM
